Test results from publication PMC4407688 (Drug metabolism and drug interactions, 2014).
Like-named read-outs stand apart in the source and are kept apart here.

Tests used:
[1] = tested on: OATP-1B1 transfected CHO cells
[2] = tested on: OATP-1B3 transfected CHO cells; format: cell-based, Chinese hamster
OATP-1B1 [3] = molecular target: T1, OATP-1B1 (Homo sapiens, UniProt Q9Y6L6); details: for Inhibition of cellular accumulation of [3H]ES (in words) / Diminished uptake of [3H]ES: 25 and 50 μM; for Diminished uptake of [3H]ES: p < 0.05
T1 sequence (Q9Y6L6 1-691): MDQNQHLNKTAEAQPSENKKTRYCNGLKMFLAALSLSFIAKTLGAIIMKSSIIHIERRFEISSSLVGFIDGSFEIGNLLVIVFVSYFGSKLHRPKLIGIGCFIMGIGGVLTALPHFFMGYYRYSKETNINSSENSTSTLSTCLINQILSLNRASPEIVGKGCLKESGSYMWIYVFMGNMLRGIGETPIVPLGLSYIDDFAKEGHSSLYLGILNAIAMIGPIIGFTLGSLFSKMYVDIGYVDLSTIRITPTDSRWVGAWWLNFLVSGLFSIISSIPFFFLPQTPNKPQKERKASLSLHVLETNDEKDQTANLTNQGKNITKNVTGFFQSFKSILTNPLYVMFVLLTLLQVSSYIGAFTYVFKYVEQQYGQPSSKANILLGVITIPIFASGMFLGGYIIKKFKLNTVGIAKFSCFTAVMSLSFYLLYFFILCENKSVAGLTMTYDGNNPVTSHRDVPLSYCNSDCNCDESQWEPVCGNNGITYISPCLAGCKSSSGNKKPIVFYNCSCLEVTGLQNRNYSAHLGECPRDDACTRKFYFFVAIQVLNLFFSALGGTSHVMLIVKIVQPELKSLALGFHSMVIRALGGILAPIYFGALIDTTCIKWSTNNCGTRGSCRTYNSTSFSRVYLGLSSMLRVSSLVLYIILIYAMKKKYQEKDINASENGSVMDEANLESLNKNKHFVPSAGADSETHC

OATP-1B3 = molecular target: T2, OATP-1B3 (Homo sapiens, UniProt Q9NPD5); test: Inhibition of [3H]CCK-8 cellular accumulation in OATP-1B3 transfected CHO cells; format: cell-based; details: for Inhibition of cellular accumulation of [3H]CCK-8 (in words): 25 and 50 μM, OATP-1B3 transfected cells; for Inhibition in net uptake rate of [3H]CCK-8 in OATP-1B3 cells (in words): increasing concentrations 0.1-100 μM
T2 sequence (Q9NPD5 1-702): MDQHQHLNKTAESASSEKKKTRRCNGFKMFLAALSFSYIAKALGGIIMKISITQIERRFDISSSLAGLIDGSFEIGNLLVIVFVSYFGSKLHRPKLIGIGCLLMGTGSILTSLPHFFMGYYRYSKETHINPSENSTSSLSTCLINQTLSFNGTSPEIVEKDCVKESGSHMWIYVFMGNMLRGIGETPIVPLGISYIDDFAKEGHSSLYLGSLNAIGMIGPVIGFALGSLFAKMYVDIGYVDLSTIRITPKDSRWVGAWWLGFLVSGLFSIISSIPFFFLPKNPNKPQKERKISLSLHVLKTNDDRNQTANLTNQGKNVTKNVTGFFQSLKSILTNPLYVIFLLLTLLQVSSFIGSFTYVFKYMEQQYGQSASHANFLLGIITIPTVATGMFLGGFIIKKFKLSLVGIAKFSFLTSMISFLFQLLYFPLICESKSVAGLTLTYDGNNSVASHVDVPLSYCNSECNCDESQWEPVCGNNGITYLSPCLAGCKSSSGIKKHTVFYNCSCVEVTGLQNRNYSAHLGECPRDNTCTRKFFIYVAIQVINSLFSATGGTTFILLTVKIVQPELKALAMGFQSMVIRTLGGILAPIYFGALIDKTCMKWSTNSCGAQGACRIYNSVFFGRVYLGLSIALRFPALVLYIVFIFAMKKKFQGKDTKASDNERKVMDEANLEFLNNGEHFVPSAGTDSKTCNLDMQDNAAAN

OATP-1B1 [4] = details: 10 μM, Flp-In T-Rex293 cells expressing OATP-1B1; ref Hu et al. [24]; cited from earlier work
[5] = coadministration of pazopanib; ref Tan et al. [41]; cited from earlier work
[6] = coadministration together with CsA; ref [16], [34], [35]; cited from earlier work
[7] = 100 μM, 24 h, OATP-1B1 transfected cells, relative to positive control Triton X
[8] = 100 μM, 24 h, OATP-1B3 transfected cells, relative to positive control Triton X

Row | SMILES | Cytotoxic effect [1, 7] | Cytotoxic effect [2, 8] | Inhibition of cellular accumulation of [3H]ES (in words) (OATP-1B1 [3]; OATP-1B1 transfected cells) | Inhibition of cellular accumulation of [3H]CCK-8 (in words) (OATP-1B3) | Inhibition in net uptake rate of [3H]CCK-8 in OATP-1B3 cells (in words) (OATP-1B3) | Inhibition of OATP-1B1 (in words) (OATP-1B1 [4]) | also measured
1 | C=CC(=O)Nc1cc2c(Nc3ccc(F)c(Cl)c3)ncnc2cc1OCCCN1CCOCC1 [Canertinib, canertinib] | No cytotoxic effects | No cytotoxic effects | did not show any significant inhibitory activity | did not show any significant effect | no significant inhibition |  | 
2 | C#Cc1cccc(Nc2ncnc3cc(OCCOC)c(OCCOC)cc23)c1 [Erlotinib, erlotinib] | No cytotoxic effects | No cytotoxic effects | did not show any significant inhibitory activity | did not show any significant effect | no significant inhibition | inhibitory activity | 
3 | Cc1cn(-c2cc(NC(=O)c3ccc(C)c(Nc4nccc(-c5cccnc5)n4)c3)cc(C(F)(F)F)c2)cn1 [Nilotinib, nilotinib] | No cytotoxic effects | No cytotoxic effects | significant inhibition | did not show any significant effect | no significant inhibition | inhibitory potency | Diminished uptake of [3H]ES (OATP-1B1 [3]; OATP-1B1 transfected cells): ~90%
4 | Cc1ccc(Nc2nccc(N(C)c3ccc4c(C)n(C)nc4c3)n2)cc1S(N)(=O)=O [Pazopanib] |  |  | significant inhibition | did not show any significant effect | no significant inhibition | inhibitory potency | Cytotoxic effect [1]: No cytotoxic effects; Cytotoxic effect [2]: No cytotoxic effects; IC50 (OATP-1B1 [3]): 3.89 ± 1.21 µM; Diminished uptake of [3H]ES (OATP-1B1 [3]; OATP-1B1 transfected cells): ~90%
5 | CO[C@H]1/C=C/O[C@@]2(C)Oc3c(C)c(O)c4c(O)c(c(/C=N/N5CCN(C)CC5)c(O)c4c3C2=O)NC(=O)/C(C)=C\C=C\[C@H](C)[C@H](O)[C@@H](C)[C@@H](O)[C@@H](C)[C@H](OC(C)=O)[C@@H]1C [Rifampicin] |  |  |  |  |  |  | IC50 (OATP-1B1 [3]): 10.5 ± 1.15 µM; Reduced uptake of [3H]ES (OATP-1B1 [3]; 50 μM, OATP-1B1 transfected cells): 70%; IC50 (OATP-1B3): 3.67 ± 1.2 µM
6 | COc1cc2c(Nc3ccc(Br)cc3F)ncnc2cc1OCC1CCN(C)CC1 [Vandetanib, vandetanib] |  |  | did not show any significant inhibitory activity | significant inhibition |  | inhibitory activity | Cytotoxic effect [1]: No cytotoxic effects; Cytotoxic effect [2]: No cytotoxic effects; IC50 (OATP-1B3): 18.1 ± 1.21 µM
7 | CC(=O)O[C@H]1C(=O)[C@@]2(C)[C@H]([C@H](OC(=O)c3ccccc3)[C@]3(O)C[C@H](OC(=O)[C@H](O)[C@@H](NC(=O)c4ccccc4)c4ccccc4)C(C)=C1C3(C)C)[C@]1(OC(C)=O)CO[C@@H]1C[C@@H]2O [paclitaxel] |  |  |  |  |  |  | Lower paclitaxel clearance [5]: 14%
8 | CC[C@H](C)C(=O)O[C@H]1C[C@H](O)C=C2C=C[C@H](C)[C@H](CC[C@@H](O)C[C@@H](O)CC(=O)O)[C@H]21 [pravastatin] |  |  |  |  |  |  | Increased AUC of statin [6]: 9.93 fold
9 | CC(C)c1nc(N(C)S(C)(=O)=O)nc(-c2ccc(F)cc2)c1/C=C/[C@@H](O)C[C@@H](O)CC(=O)O [rosuvastatin] |  |  |  |  |  |  | Increased AUC of statin [6]: 7.08 fold
